Assay results reported in patent US20060252040A1, “Strand specific detection and quantification” (priority 2002, published 2006).

Legend:
[1] = system: RNA viruses including Dengue; conditions: Koff et al., 1982; Sidwell, 1979; cited from earlier work
BHK-21 cells = experiment: Cytotoxicity by LDH release (CytoTox 96 Non-Radioactive Cytotoxicity Assay); type: cell-based, hamster; conditions: highest concentration used, 10 ug/ml, day 3 post-infection
Method: (§1) Dengue virus infection and titration: Monolayers of C6/36 or BHK-21 cells were grown in 24 well plates and infected the next day with Dengue 2 virus. After adsorption for 1 hour, unbound viruses were removed by aspiration, the cells rinsed with PBS and grown in their respective maintenance media. Cells without Dengue virus infection, or inoculated with heat-inactivated virus (30 minutes at 56° C.), were used as controls. In some experiments, BHK-21 cells were infected with Dengue 2 virus and grown in the absence or presence of varying concentrations of ribavirin (1-fl-D-ribofuranosyl-1,2,4-triazole-3-carboximide; Sigma, St. Louis, Mo.) to inhibit viral transcription. Cytotoxicity of the cells due to ribavirin treatment was determined by CytoTox 96® Non-Radioactive Cytotoxicity Assay (Promega Corporation, Madison, Wis.). The titer of Dengue 2 virus was determined by plaque assay with BHK-21 cells. […] At day 6 post-infection, cells were fixed and stained with 1% crystal violet-4% formalin solution in phosphate-buffered saline (PBS), and the plaque numbers counted. […]
(§2) To correlate the levels of replicating virus and the effects of ribavirin, BHK-21 cells were initially infected with Dengue virus at an m.o.i of 0.00125, in the absence or in the presence of varying concentrations of ribavirin. […] The results further validated the utility of this method to quantify the replicative form of the virus.

Dengue 2 virus [2] = experiment: Plaque assay of supernatants from Dengue-infected BHK-21 cells grown with ribavirin; type: cell-based; conditions: m.o.i 0.00125, supernatants harvested day 3 post-infection, varying concentrations of ribavirin
Method: as §1, §2

Dengue 2 virus [3] = experiment: RT and real-time quantitative PCR of Dengue RNA in infected BHK-21 cells treated with ribavirin; type: cell-based; conditions: m.o.i 0.00125, day 3 post-infection
Method: RT-PCR and real-time quantitative PCR of Dengue nucleic acids: Total RNA was prepared from infected cells using the TRizol® Reagent (Invitrogen Life Technologies, Carlsbad, Calif.) according to manufacturer's instructions. The RNA obtained was quantified by spectrophotometry, and their integrity analyzed by gel electrophoresis. The RT reaction was performed at 42° C. on 2-5 ug of total RNA as described (21) using 100 U of M-MLV (Promega Corporation, Madison, Wis.) with either 12.5 pmoles of random hexamers (Promega Corporation, Madison, Wis.) or DNS-1 (5′-[…]-3′ (SEQ ID NO: 5)) in a total volume of 10 ul. […] The calculated ΔG of the hairpin loop at the RT step was −2.9 kcal/mol, with a Tm (melting temperature) of 62° C. […] However, with the conditions used for PCR, the ΔG and the Tm of the hairpin loop were −0.4 kcal/mol and 64° C. respectively.
All real-time quantitative PCR was performed on the iCycler jQ™ Multi-Color Real Time PCR Detection System (Bio-Rad, Hercules, Calif.). The threshold cycles (Ct) were calculated using the Optical interface v2.3B (Bio-Rad, Hercules, Calif.). […] Unless stated otherwise, all real-time quantitative PCR was performed with 40 cycles of 30 s denaturation at 95° C., 30 s annealing at 60° C. and 30 s extension at 72° C. […]

NC(=O)c1ncn([C@@H]2O[C@H](CO)[C@@H](O)[C@H]2O)n1 [Ribavirin, 1-fl-D-ribofuranosyl-1,2,4-triazole-3-carboximide]
replication of RNA viruses [1]: known to inhibit the replication of many RNA viruses including Dengue
cell death (LDH release) (BHK-21 cells): did not induce detectable cell death
viral replication (relative PFU) (Dengue 2 virus [2]): inhibited viral replication in a concentration dependent manner
replicative, negative Dengue RNA strand (Dengue 2 virus [3]; RT with DNS-1, increasing concentrations of ribavirin): concomitant decrease with increasing concentrations of ribavirin
viral transcripts, random hexamer-primed RT, primers to the envelope region (Dengue 2 virus [3]; varying concentrations of ribavirin): corresponding decrease in viral transcripts
